In the supplement of paper PMC10307832:

Tests used:
Assay in all cases: relative viability (nuclei count vs DMSO), 5 days (fraction); higher = more cells survive
A-427 = test system: A-427
How it was run: (§1)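 Medians of duplicate plates are given as relative viability. That measure is the nuclei count in treated wells divided by the count in vehicle wells. Counts were taken on 4× images of lung cancer cell lines in 1536-well plates, 5 days after pin-tool dosing the day after seeding with one drug alone or a fixed anchor-drug dose plus five library-drug doses (not always all listed) in √10 steps.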

CAL-12T = test system: CAL-12T
How it was run: as §1

LK-2 = test system: LK-2
How it was run: as §1

NCI-H1648 = test system: NCI-H1648
How it was run: as §1

NCI-H1651 = test system: NCI-H1651
How it was run: as §1

NCI-H1755 = test system: NCI-H1755
How it was run: as §1

Molecule `Cc1csc(=NC2CCCCC2)n1/N=C/c1ccc(O)c(O)c1O` [MIM1] + Nc1nc2[nH]cc(CCc3ccc(C(=O)N[C@@H](CCC(=O)O)C(=O)O)cc3)c2c(=O)[nH]1 [Pemetrexed] (partner 0.2 µM) has a relative viability (A-427; first compound 0.2 µM) of 1.02, a relative viability (A-427; first compound 0.6325 µM) of 0.947 and a relative viability (A-427; first compound 2 µM) of 0.989. For the same molecule, the relative viability (A-427; first compound 6.325 µM) was 0.901, the relative viability (A-427; first compound 20 µM) was 0.343 and the relative viability (CAL-12T; first compound 0.2 µM) was 1.25. For the same molecule, the relative viability (CAL-12T; first compound 0.6325 µM) was 1.07, the relative viability (CAL-12T; first compound 2 µM) was 1.04 and the relative viability (CAL-12T; first compound 6.325 µM) was 0.847. It also gave a relative viability (CAL-12T; first compound 20 µM) of 0.925, a relative viability (LK-2; first compound 0.2 µM) of 0.276 and a relative viability (LK-2; first compound 0.6325 µM) of 0.298. The relative viability (LK-2; first compound 2 µM) was 0.197, the relative viability (LK-2; first compound 6.325 µM) was 0.272 and the relative viability (LK-2; first compound 20 µM) was 0.218. It also gave a relative viability (NCI-H1648; first compound 0.2 µM) of 0.874, a relative viability (NCI-H1648; first compound 0.6325 µM) of 0.688 and a relative viability (NCI-H1648; first compound 2 µM) of 0.584. For the same molecule, the relative viability (NCI-H1648; first compound 6.325 µM) was 0.544, the relative viability (NCI-H1648; first compound 20 µM) was 0.455 and the relative viability (NCI-H1651; first compound 0.2 µM) was 0.57. For the same molecule, the relative viability (NCI-H1651; first compound 0.6325 µM) was 0.443, the relative viability (NCI-H1651; first compound 2 µM) was 0.564 and the relative viability (NCI-H1651; first compound 6.325 µM) was 0.476. For the same molecule, the relative viability (NCI-H1651; first compound 20 µM) was 0.558, the relative viability (NCI-H1755; first compound 0.2 µM) was 0.377 and the relative viability (NCI-H1755; first compound 0.6325 µM) was 0.419. The relative viability (NCI-H1755; first compound 2 µM) was 0.41, the relative viability (NCI-H1755; first compound 6.325 µM) was 0.41 and the relative viability (NCI-H1755; first compound 20 µM) was 0.269.

For `Cc1cn(-c2cc(NC(=O)c3ccc(C)c(Nc4nccc(-c5cccnc5)n4)c3)cc(C(F)(F)F)c2)cn1` [Nilotinib] + CC(=O)c1c(C)c2cnc(Nc3ccc(N4CCNCC4)cn3)nc2n(C2CCCC2)c1=O [Palbociclib] (partner 0.5 µM), the relative viability (A-427; first compound 0.001 µM) was 0.51, the relative viability (A-427; first compound 0.003162 µM) was 0.493 and the relative viability (A-427; first compound 0.01 µM) was 0.524. The relative viability (A-427; first compound 0.03162 µM) was 0.552, the relative viability (A-427; first compound 0.1 µM) was 0.466 and the relative viability (CAL-12T; first compound 0.001 µM) was 0.593. For the same molecule, the relative viability (CAL-12T; first compound 0.003162 µM) was 0.438, the relative viability (CAL-12T; first compound 0.01 µM) was 0.473 and the relative viability (CAL-12T; first compound 0.03162 µM) was 0.357. The relative viability (CAL-12T; first compound 0.1 µM) was 0.299, the relative viability (LK-2; first compound 0.001 µM) was 0.751 and the relative viability (LK-2; first compound 0.003162 µM) was 0.475. It also gave a relative viability (LK-2; first compound 0.01 µM) of 0.788, a relative viability (LK-2; first compound 0.03162 µM) of 0.698 and a relative viability (LK-2; first compound 0.1 µM) of 0.992. It also gave a relative viability (NCI-H1648; first compound 0.001 µM) of 0.244, a relative viability (NCI-H1648; first compound 0.003162 µM) of 0.319 and a relative viability (NCI-H1648; first compound 0.01 µM) of 0.294. The relative viability (NCI-H1648; first compound 0.03162 µM) was 0.254, the relative viability (NCI-H1648; first compound 0.1 µM) was 0.268 and the relative viability (NCI-H1651; first compound 0.001 µM) was 0.555. The relative viability (NCI-H1651; first compound 0.003162 µM) was 0.601, the relative viability (NCI-H1651; first compound 0.01 µM) was 0.616 and the relative viability (NCI-H1651; first compound 0.03162 µM) was 0.448. For the same molecule, the relative viability (NCI-H1651; first compound 0.1 µM) was 0.562, the relative viability (NCI-H1755; first compound 0.001 µM) was 0.451 and the relative viability (NCI-H1755; first compound 0.003162 µM) was 0.453. For the same molecule, the relative viability (NCI-H1755; first compound 0.01 µM) was 0.436, the relative viability (NCI-H1755; first compound 0.03162 µM) was 0.468 and the relative viability (NCI-H1755; first compound 0.1 µM) was 0.368.

`Cc1csc(=NC2CCCCC2)n1/N=C/c1ccc(O)c(O)c1O` [MIM1] + CC(=O)Nc1cccc(-n2c(=O)n(C3CC3)c(=O)c3c(Nc4ccc(I)cc4F)n(C)c(=O)c(C)c32)c1 [Trametinib] (partner 0.02 µM) was tested, and the relative viability (A-427; first compound 0.2 µM) was 0.758, the relative viability (A-427; first compound 0.6325 µM) was 0.737 and the relative viability (A-427; first compound 2 µM) was 0.77. For the same molecule, the relative viability (A-427; first compound 6.325 µM) was 0.672, the relative viability (A-427; first compound 20 µM) was 0.37 and the relative viability (CAL-12T; first compound 0.2 µM) was 0.406. It also gave a relative viability (CAL-12T; first compound 0.6325 µM) of 0.378, a relative viability (CAL-12T; first compound 2 µM) of 0.341 and a relative viability (CAL-12T; first compound 6.325 µM) of 0.316. For the same molecule, the relative viability (CAL-12T; first compound 20 µM) was 0.249, the relative viability (LK-2; first compound 0.2 µM) was 1.02 and the relative viability (LK-2; first compound 0.6325 µM) was 0.693. For the same molecule, the relative viability (LK-2; first compound 2 µM) was 0.625, the relative viability (LK-2; first compound 6.325 µM) was 1.02 and the relative viability (LK-2; first compound 20 µM) was 0.236. It also gave a relative viability (NCI-H1648; first compound 0.2 µM) of 0.419, a relative viability (NCI-H1648; first compound 0.6325 µM) of 0.439 and a relative viability (NCI-H1648; first compound 2 µM) of 0.619. For the same molecule, the relative viability (NCI-H1648; first compound 6.325 µM) was 0.499, the relative viability (NCI-H1648; first compound 20 µM) was 0.267 and the relative viability (NCI-H1651; first compound 0.2 µM) was 0.856. The relative viability (NCI-H1651; first compound 0.6325 µM) was 0.9, the relative viability (NCI-H1651; first compound 2 µM) was 0.866 and the relative viability (NCI-H1651; first compound 6.325 µM) was 0.728. The relative viability (NCI-H1651; first compound 20 µM) was 0.843, the relative viability (NCI-H1755; first compound 0.2 µM) was 0.719 and the relative viability (NCI-H1755; first compound 0.6325 µM) was 0.778. It also gave a relative viability (NCI-H1755; first compound 2 µM) of 0.808, a relative viability (NCI-H1755; first compound 6.325 µM) of 0.7 and a relative viability (NCI-H1755; first compound 20 µM) of 0.382.
